We go through eleven compounds from US7084168B2, “Indoline derivatives” (Wyeth, priority 1999, dated 2006).

The subject of data set [1] is rat uterine decidualization. In words: Rat decidualization assay. Format: in vivo. The method, then: 1. Rat Decidualization Assay
The materials and methods used in tins assay are as follows.
The animals are treated once daily for seven days.
Uteri are removed and trimmed of fat.
Decidual response: [(D-C)/C]×100%

By melting point is commonly meant the temperature, or range, at which the solid turns liquid.

Structures are written as SMILES. Several values for one entry are separate records, joined by “and”; a condition that tells them apart may be missing. Equal values may be shown once.

As to `CCOC(OCC)N1C(=O)C2(CCCCC2)c2cc(-c3cc(F)cc(C#N)c3)ccc21` [Example 50, 3-(1′-Diethoxymethyl-1′,2′-dihydro-2′-oxospiro[cyclohexane-1,3′-[3H]indol]-5′-yl)-5-fluorobenzonitrile], the melting point was 146 °C.
Take `O=C1Nc2ccc(-c3ccc(C=NO)c(F)c3)cc2C12CCCCC2` [Example 64, 2-fluoro-4-(1′,2′-Dihydro-2′-oxospiro[cyclohexane-1,3′-[3H]indol]-5′-yl) benzaldehyde oxime]: the melting point is 240 to 242 °C.
`O=C1Nc2ccc(-c3cccc(C=NO)c3F)cc2C12CCCCC2` [Example 68, 2-fluoro-3-(1′,2′-Dihydro-2′-oxospiro[cyclohexane-1,3′-[3H]indol]-5′-yl) benzaldehyde oxime] registered a melting point of 213 to 217 °C.
On the same count and under the same terms, in the case of `COc1cccc(-c2ccc3c(c2)C(C)(C)C(=O)N3)c1` [Example 3, 5-(3-Methoxy-phenyl)-3,3-dimethyl-1,3-dihydro-indol-2-one] it was 157 to 158 °C; in that of `O=C1Nc2ccccc2C12CCCC(c1cccc(F)c1)C2` (centres unmarked) [Example 21, 5-(3-Fluorophenyl)spiro[cyclohexane-1,3′-[3H]indol]-2′(1′H)-one], 171 to 172 °C.
`N#Cc1cncc(-c2ccc3c(c2)C2(CCCCC2)C(=O)N3)c1` [Example 17, 5-(1′,2′-Dihydro-2′-oxospiro[cyclohexane-1,3′-[3H]indol]-5′-yl)-3-pyridine carbonitrile]: the melting point lay within 232 to 234 °C.
With `CC#C[C@]1(O)CC[C@H]2[C@@H]3CCC4=CC(=O)CCC4=C3[C@@H](c3ccc(N(C)C)cc3)C[C@@]21C` [RU486], in data set [1] (decrease in EC50 progesterone induced decidual response in rat, p.o., individual studies), the IC50 was 0.21 mg/kg, p.o. and 0.14 mg/kg, p.o.
For `C#C[C@]1(O)CC[C@H]2[C@@H]3CCC4=CC(=O)CC[C@@H]4[C@H]3C(=C)C[C@@]21CC` [3-Ketodesogestrel], the “Estimated average EC50” value in data set [1] (rat decidual response, s.c., average of dose-response curves) is recorded as 0.10 mg/kg, s.c.
As to `CC1(C)C(=O)Nc2ccc(-c3cc(F)cc(C#N)c3)cc21` [Example 82, 3-(3,3-Dimethyl-2-oxo-2,3-dihydro-1H-indol-5-yl)-5-fluoro-benzonitrile], the melting point is 231.2 to 232.3 °C.
As to `N#CCc1cccc(-c2ccc3c(c2)C2(CCCCC2)C(=O)N3)c1` [Example 81, 3-(1′,2′-Dihydro-2′-oxospiro[cyclohexane-1,3′-[3H]indol]-5′-yl)phenylacetonitrile], the melting point lay in the range of 190 to 193 °C.
On the same count and under the same terms, in the case of `O=C1Nc2ccc(-c3cccc(O)c3)cc2C12CCCCC2` [Example 33, 5′-(3-Hydroxyphenyl)spiro[cyclohexane-1,3′-[3H]indol]-2′(1′H)-one] it was 213 to 216 °C.
